Measurements from PubChem BioAssay (NCI).
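Each compound was tested at five concentrations against cells in 96-well plates for 48 hours. At the GI50, growth is halved. TGI is the concentration that stops growth completely.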 *1 amine or outer side, *2 acyl side, *3 side chain or, on linkers, in order; H or OH if unused. Where a SMILES comes first, the peptide text is derived from it. [ ]: non-standard residue; d: D form. ξ: configuration not given here. X21 = CC[C@@H](C)C(N[*:1])C(=O)[*:2]; ξR = N=C(N)NCCCC(N)C(=O)O; ξI = CCC(C)C(N)C(=O)O; ξL = CC(C)CC(N)C(=O)O; ξK = NCCCCC(N)C(=O)O; ξV = CC(C)C(N)C(=O)O; ξA = CC(N)C(=O)O

How the values were obtained:
Assay in all cases: DTP human tumour cell line panel, 48 h
U251 CNS = tested on: U251 CNS
RXF 393 renal = tested on: RXF 393 renal
SNB-19 CNS = tested on: SNB-19 CNS
T-47D breast = tested on: T-47D breast
NCI-H23 lung = tested on: NCI-H23 lung
CAKI-1 renal = tested on: CAKI-1 renal
HCT-15 colon = tested on: HCT-15 colon
M14 melanoma = tested on: M14 melanoma
OVCAR-5 ovarian = tested on: OVCAR-5 ovarian
SN12C renal = tested on: SN12C renal

Structure (SMILES)	GI50 (U251 CNS)	TGI (U251 CNS)	GI50 (RXF 393 renal)	TGI (RXF 393 renal)	GI50 (SNB-19 CNS)	TGI (SNB-19 CNS)	GI50 (T-47D breast)	TGI (T-47D breast)	GI50 (NCI-H23 lung)	TGI (NCI-H23 lung)	GI50 (CAKI-1 renal)	TGI (CAKI-1 renal)	GI50 (HCT-15 colon)	TGI (HCT-15 colon)	GI50 (M14 melanoma)	TGI (M14 melanoma)	GI50 (OVCAR-5 ovarian)	TGI (OVCAR-5 ovarian)	GI50 (SN12C renal)	TGI (SN12C renal)
O=C(Nc1ccccc1)Nc1cccc(Oc2nnc(Cl)c3ccccc23)c1	2.14 µM	5.2 µM	2.69 µM	6.24 µM	1.67 µM	8.46 µM	0.863 µM	10.8 µM	3.72 µM	9.44 µM	3.34 µM	14.3 µM	3.54 µM	12.9 µM	6.15 µM	> 25 µM	5.61 µM	15.3 µM	6.72 µM	> 25 µM
Nc1ncnc2c1cnn2Cc1ccc(Cl)cc1		> 100 µM		> 100 µM		> 100 µM		> 100 µM		> 100 µM	31.8 µM	> 100 µM		> 100 µM		> 100 µM	44.8 µM	> 100 µM		> 100 µM
OCC(O)C(O)C(O)/C=N/Nc1nc2ccccc2nc1-c1ccccc1 (stereo unspecified)	77.9 µM	> 100 µM	> 100 µM	> 100 µM	> 100 µM	> 100 µM	41.5 µM	> 100 µM	> 100 µM	> 100 µM	87.9 µM	> 100 µM	86.3 µM	> 100 µM	> 100 µM	> 100 µM	> 100 µM	> 100 µM	> 100 µM	> 100 µM
CC(C)c1ccc(NC(=S)NC(=O)c2ccccc2)cc1		80.1 µM		44.9 µM		> 100 µM		77.2 µM		68 µM		55.5 µM		40.7 µM		40.7 µM		> 100 µM		> 100 µM
CCNCCCn1c2c(c3ccc([N+](=O)[O-])cc3c1=O)C(=O)c1cc(OC)cnc1-2	0.0329 µM	0.186 µM	0.136 µM	0.464 µM	0.0576 µM	2.53 µM	0.036 µM	12 µM	0.0436 µM	0.323 µM	0.0406 µM	2.3 µM	0.184 µM	1.26 µM	0.0408 µM	0.437 µM	0.176 µM	0.675 µM	0.0531 µM	1.08 µM
C/C(=N\N=C(N)N)C(CN(C)C)C(c1ccccc1)c1c(O)c2ccccc2oc1=O (stereo unspecified)		> 100 µM		> 100 µM		> 100 µM		> 100 µM		> 100 µM		> 100 µM		> 100 µM		> 100 µM		> 100 µM		> 100 µM
C=C1C(=O)O[C@H]2[C@H]1CC/C(Cn1cc(-c3cc(C)c(C)cc3C)nn1)=C\CC[C@@]1(C)O[C@@H]21	1.53 µM	2.91 µM	0.962 µM	2.21 µM	3.9 µM	15.9 µM	0.539 µM	2.45 µM	1.77 µM	3.99 µM	1.08 µM	2.39 µM	0.201 µM	0.548 µM	1.5 µM	3.27 µM	1.74 µM	4.38 µM	1.49 µM	3.41 µM
Cc1c(N=Cc2ccc(N(CCC#N)CCC#N)cc2)c(=O)n(-c2ccccc2)n1C		> 100 µM		92.1 µM		> 100 µM		> 100 µM		> 100 µM		> 100 µM		> 100 µM		> 100 µM		> 100 µM		> 100 µM
COc1cc(OC)c(C(=O)/C=C/c2cccc(OC(C)=O)c2)cc1CC=C(C)C	6.91 µM	14.7 µM	10.2 µM	32.3 µM	9.2 µM	17.2 µM	4.15 µM	16.7 µM	8.05 µM	18.5 µM	23.2 µM	> 50 µM	5.74 µM	14.4 µM	7.3 µM	18.2 µM	11.9 µM	22.5 µM	9.87 µM	> 50 µM
O=C(Nc1cccc(-n2cc(-c3ccncc3)c(-c3ccc(O)c(Cl)c3)n2)c1)Nc1cccc(C(F)(F)F)c1	1.4 µM	4.8 µM	1.19 µM	4.05 µM	2.88 µM	46.2 µM	1.97 µM	7.3 µM	2.59 µM	8.81 µM	1.87 µM	5.84 µM	2.24 µM	10.2 µM	1.74 µM	3.94 µM	3.5 µM	36.3 µM	2.86 µM	> 100 µM
CN1CCN(c2ccc(C(=O)Nc3cc(-c4cccc(NS(=O)(=O)c5ccccc5)c4)[nH]n3)cc2)CC1	2.87 µM	18.7 µM	2.55 µM	12.5 µM	14.2 µM	32.2 µM	3.8 µM	18.6 µM	11.6 µM	35.2 µM	17.4 µM	51.8 µM	12.3 µM	39.2 µM	6.13 µM	20.3 µM	13.8 µM	46.6 µM	7.82 µM	24 µM
Cn1c(=O)c(Oc2ccccc2)cc2cnc(NC3CCOCC3)nc21	> 25 µM	> 25 µM	> 25 µM	> 25 µM	> 25 µM	> 25 µM	> 25 µM	> 25 µM	> 25 µM	> 25 µM	> 25 µM	> 25 µM	> 25 µM	> 25 µM	> 25 µM	> 25 µM	> 25 µM	> 25 µM	> 25 µM	> 25 µM
N#C/C(=C\c1ccc(Br)cc1)n1nnc2ccccc21	1.1 µM	2.67 µM	0.427 µM	1.94 µM	0.763 µM	2.41 µM	0.376 µM	4.74 µM	1.44 µM	4.2 µM	0.345 µM	2 µM	0.273 µM	3.03 µM	0.386 µM	3.44 µM	1.13 µM	3.26 µM	0.525 µM	3.48 µM
COc1cc(/C=C2\C(=O)Nc3cccc(Cl)c32)cc(OC)c1OC	41 µM	> 100 µM	8.79 µM	36.9 µM	60.1 µM	> 100 µM	> 100 µM	> 100 µM	> 100 µM	> 100 µM	> 100 µM	> 100 µM	> 100 µM	> 100 µM	> 100 µM	> 100 µM	46.4 µM	> 100 µM	> 100 µM	> 100 µM
C=C1C(=O)OC2CC(C)C3C=CC(=O)C3CC12 (stereo unspecified)		20.6 µM		3.03 µM		37.7 µM		5.77 µM		4.03 µM		5.47 µM		4.16 µM		3.46 µM		10.4 µM		5.19 µM
O=C1CCS/C(=N\S(=O)(=O)c2ccc(N3N=C4c5ccccc5CC4C3c3cccs3)cc2)N1C(=O)c1ccccc1 (stereo unspecified)	4.5 µM	17.4 µM	6.31 µM	33 µM	45.7 µM	> 100 µM	> 100 µM	> 100 µM	17.2 µM	41.5 µM	26.8 µM	86.6 µM	15.1 µM	31.3 µM	10.8 µM	27.2 µM	25.8 µM	54.3 µM	16.7 µM	57.1 µM
Nc1nc(-c2cccc([N+](=O)[O-])c2)cc(-c2cc(-c3cccc([N+](=O)[O-])c3)nc(N)n2)n1		> 100 µM		> 100 µM		> 100 µM		> 100 µM		> 100 µM		> 100 µM		> 100 µM		> 100 µM		> 100 µM		> 100 µM
COc1cc2c(cc1OCCCCOc1ccc(-c3nc4ccccc4s3)cc1)N=C[C@@H]1CCCN1C2=O	0.534 µM	1.85 µM	0.19 µM	0.443 µM	1.52 µM	3.04 µM	0.339 µM	1.45 µM	1.15 µM	3.56 µM	0.769 µM	10.8 µM	1.08 µM	3.89 µM	0.908 µM	2.39 µM	0.861 µM	3.86 µM	1.13 µM	4 µM
CN(C)CCCn1c2nc(=O)[nH]c(=O)c-2nc2cc(Cl)c(Cl)cc21	3.08 µM	10.5 µM	13.2 µM	26.3 µM	12.7 µM	26 µM	1.76 µM	5.86 µM	8.04 µM	23.5 µM	1.83 µM	4.66 µM	4.03 µM	21.5 µM	3.68 µM	13 µM	14.2 µM	30.4 µM	3.09 µM	10.1 µM
O=C1NN(c2ccccc2)C(=O)/C1=C/c1ccc(Br)o1	1.57 µM	19.8 µM	1.02 µM	2.04 µM	17.5 µM	41.9 µM	18.9 µM	52.3 µM	15.6 µM	36.1 µM	5.8 µM	20.8 µM	10.1 µM	24.7 µM		16.2 µM	14.2 µM	30.6 µM	0.951 µM	21.3 µM
C[C@H](N)C(=O)N1C[C@H](CCCB(O)O)[C@](N)(C(=O)O)C1	> 100 µM	> 100 µM	> 100 µM	> 100 µM	> 100 µM	> 100 µM	> 100 µM	> 100 µM	> 100 µM	> 100 µM	> 100 µM	> 100 µM	> 100 µM	> 100 µM	> 100 µM	> 100 µM	> 100 µM	> 100 µM	> 100 µM	> 100 µM
O=C(O)C1CCCCC1c1c2ccc(=O)cc-2oc2cc(O)ccc12 (stereo unspecified)		96.9 µM		62.6 µM		> 100 µM		54.4 µM		> 100 µM		> 100 µM		> 100 µM		78.6 µM		> 100 µM		> 100 µM
NC(=O)c1ccc2nc3c(n2c1)C(=O)C(=O)c1ccccc1-3	0.296 µM	0.928 µM	1.64 µM	3.02 µM	1.1 µM	2.31 µM	0.415 µM	2.54 µM	0.42 µM	2.8 µM	1.67 µM	3.22 µM	1.46 µM	3.55 µM	0.381 µM	1.23 µM	1.72 µM	3.15 µM	0.965 µM	2.33 µM
OCc1ccc(N(CCN2CCCC2)Cc2ccc(F)cc2)cc1Cl	15.5 µM	32.4 µM	23.3 µM	67.1 µM	25 µM	82.1 µM	19 µM	49.2 µM	32.4 µM	> 100 µM	4.15 µM	19.4 µM	18.6 µM	50.1 µM	14.3 µM	30.9 µM	16 µM	40.5 µM	34.8 µM	> 100 µM
CCC(C)C1NC(=O)C(CC(C)C)NC(=O)C(C)NC(=O)C(C(C)C)NC(=O)C(CCCCN)NC(=O)C(CC(C)C)NC(=O)C(C(C)C)NC(=O)[C@H](C)NC(=O)C(C(C)CC)NC(=O)C(CCCN=C(N)N)NC(=O)C(CCCCN)NC(=O)C(CCCN=C(N)N)NC(=O)C(CCCCN)NC(=O)C([C@H](C)CC)NC(=O)C(CCCCN)NC1=O (stereo partly specified) (cyclo(A[ξV][ξL][ξK][ξV][ξA][ξL][ξI][ξK][X21][ξK][ξR][ξK][ξR][ξI]))	1.5 µM	3.44 µM	1.52 µM	2.96 µM	2.07 µM	10.1 µM	0.756 µM	4.28 µM	0.43 µM	2.22 µM	1.38 µM	3.04 µM	1.48 µM	3.58 µM	1.5 µM	3.13 µM	1.94 µM	7.16 µM	1.37 µM	3.32 µM
Cc1cc(=O)oc2cc(OS(C)(=O)=O)ccc12		> 100 µM		> 100 µM		> 100 µM		> 100 µM		> 100 µM		> 100 µM		> 100 µM		> 100 µM		> 100 µM		> 100 µM
NC(CC1=CCC=CC1)C(=O)O (stereo unspecified)		> 100 µM		> 100 µM		> 100 µM		> 100 µM		> 100 µM		> 100 µM		> 100 µM		> 100 µM		> 100 µM		> 100 µM
